Source: patent publication US20230257385A1, “SALT AND SOLID FORMS OF TABERNANTHALOG” (priority 2021, published 2023)
Structures can show the parent of a compound that is named as a salt. Where two headings read alike, the source gives them in different places.

Key:
[1] = cited from earlier work
[2] = Thermocycling of the monofumarate salt (Experiment Reference 9); format: physicochemical; details: for XRPD (moist pellet): form (pattern) of wet pellet after thermocycling; for crystal form change following dry: moist pellet vs oven dried pellet after thermocycling, ✓ / x; for XRPD crystallinity (oven dried): tabernanthalog monofumarate salt thermocycled between 20° C. and peak T (75% of solvent b.p.), solvent, input and number of cycles per sample reference
Method: The tabernanthalog monofumarate salt (Pattern #1, 75 mg, 1 wt) was weighed out in to 4 separate vials and the corresponding solvents (750 μl, 10 vol) from Table 89 were charged.
The suspensions underwent constant amplitude thermocycling at +0.5° C./min up to 75% of the relevant solvent b.p. and −0.5° C./min down to 20° C. The thermocycle was repeated 5 times for 9-A (Experiment Reference 9-Sample Reference A) to 9-D (Experiment Reference 9-Sample Reference D) prior to working up the samples, analyzed the by XRPD (wet and dry). 9-E (Experiment Reference 9-Sample Reference E) and 9-F (Experiment Reference 9-Sample Reference F) were subjected to 10 cycles and 9-G (Experiment Reference 9-Sample Reference G) to 35 cycles.
Thermocycling in different solvents can promote the formation of alternative polymorphic forms. The tabernanthalog monofumarate salt (Pattern #1), was heated and cooled between 20° C. and 75% of the relevant solvent b.p. at 0.5° C./minute, for 5 consecutive cycles; a 10-minute dwell was incorporated at each inflection. Thermocycling is ripening technique, that encourages particle size enlargement and promotes the evolution of the API into a stable phase. […] The products were analyzed both wet and dry to determine if form changes had occurred, all products were consistent with previously encountered patterns, and by DSC none of the products were single phase.

[3] = Stability examination of supplied monofumarate material at 40° C./75% RH (Example 5, Experiment Reference 2); format: physicochemical
[4] = counter ion (acid), theoretical pKa value

Molecule	pKa1 [1, 4]	pKa1 ([1]; counter ion of the salt screen)	XRPD (moist pellet) [2]	XRPD crystallinity (oven dried) [2] [%]	further results
O=C(O)[C@H](O)[C@@H](O)[C@H](O)[C@H](O)CO [D-Gluconic acid]	3.8	3.80	–	–	–
O=C[C@H](O)[C@@H](O)[C@H](O)[C@H](O)C(=O)O [D-Glucuronic acid]	3.2	3.20	–	–	–
CCS(=O)(=O)O [Ethane sulfonic acid]	2.05	–	–	–	–
O=S(=O)(O)CCS(=O)(=O)O [Ethane-1,2-disulfonic acid]	–	−2.10	–	–	pKa2 ([1]; counter ion of the salt screen): −1.50
CCS(=O)(=O)O [Ethanesulfonic acid]	–	−2.10	–	–	pKa2 ([1]; counter ion of the salt screen): −1.50
O=C(O)[C@@H](O)[C@H](O)[C@H](O)[C@@H](O)C(=O)O [Galactaric acid]	3.1	–	–	–	pKa2 [1, 4]: 3.6
O=C(O)CO [Glycolic acid]	3.3	3.30	–	–	–
Br [Hydrobromic acid]	–	−9.00	–	–	–
COc1ccc2c3c([nH]c2c1)CCN(C)CC3.O=C(O)/C=C/C(=O)O [Pattern 9-A]	–	–	Incoherent	82.1	crystal form change following dry [2]: ✓
COc1ccc2c3c([nH]c2c1)CCN(C)CC3.O=C(O)/C=C/C(=O)O [Pattern 9-B]	–	–	Pattern #1	73.6	–
COc1ccc2c3c([nH]c2c1)CCN(C)CC3.O=C(O)/C=C/C(=O)O [Pattern 9-C]	–	–	Pattern #8	72.8	–
COc1ccc2c3c([nH]c2c1)CCN(C)CC3.O=C(O)/C=C/C(=O)O [Pattern 9-D]	–	–	Pattern #3	74.5	–
COc1ccc2c3c([nH]c2c1)CCN(C)CC3.O=C(O)/C=C/C(=O)O [Pattern 9-E]	–	–	Pattern #2c	77.1	–
COc1ccc2c3c([nH]c2c1)CCN(C)CC3.O=C(O)/C=C/C(=O)O [Pattern 9-F]	–	–	Pattern #2c	82.3	crystal form change following dry [2]: ✓
COc1ccc2c3c([nH]c2c1)CCN(C)CC3.O=C(O)/C=C/C(=O)O [Pattern 9-G]	–	–	Pattern #2c	81.1	–
COc1ccc2c3c([nH]c2c1)CCN(C)CC3.O=C(O)/C=C/C(=O)O [Tabernanthalog fumarate (CAT8931)]	–	–	–	–	HPLC (% area) ([3]; 2-A, open-necked, wide vial at 75% RH/40° C., t = 2 w): 97.26 % area; HPLC (% area) ([3]; 2-A, open-necked, wide vial at 75% RH/40° C., t = 3 w): 97.01 % area; HPLC (% area) ([3]; 2-A, open-necked, wide vial at 75% RH/40° C., t = 4 w): 97.98 % area; HPLC (% area) ([3]; 2-A, open-necked, wide vial at 75% RH/40° C., t = 5 w): 97.34 % area; HPLC (% area) ([3]; 2-B, sealed PK0056 electrostatic bags at 75% RH/40° C., t = 2 w): 97.44 % area; HPLC (% area) ([3]; 2-B, sealed PK0056 electrostatic bags at 75% RH/40° C., t = 3 w): 97.02 % area; HPLC (% area) ([3]; 2-B, sealed PK0056 electrostatic bags at 75% RH/40° C., t = 4 w): 98.38 % area; HPLC (% area) ([3]; 2-B, sealed PK0056 electrostatic bags at 75% RH/40° C., t = 5 w): 97.54 % area; HPLC (% area) ([3]; input batch, before exposure): 97.64 % area
COc1ccc2c3c([nH]c2c1)CCN(C)CC3 [supplied material (Pattern #1), 8-methoxy-3-methyl-1H,2H,3H,4H,5H,6H-azepino[4,5-b]indole fumarate]	–	–	–	–	physical and chemical stability ([3]; 75% RH at 40° C., open vial and double polyethene bagged, up to 5 w, XRPD, HPLC, TGA, DSC, fumarate): no evidence for hydrate formation, chemical degradation or disproportionation
(−)-L-Malic acid	3.5	3.50	–	–	pKa2 [1, 4]: 5.1; pKa2 ([1]; counter ion of the salt screen): 5.10
